Experimental data reported in PubChem BioAssay AID256 (DTP/NCI, 2004).
“And” between values parts separate entries of the source, which are not always exact repeats. Equal values may be shown once. Toxic doses and inconclusive results are not listed.

Tested on: CD2F1 mice, L1210 leukemia ip, survival T/C
Experiment: NCI In Vivo Anticancer Drug Screen. Data for tumor model L1210 Leukemia (intraperitoneal) in CD2F1 (CDF1) mice
Conditions: higher = longer survival
Procedure, shortened: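 Tumor-bearing mice (transplanted tumor) were split into treated and vehicle control groups, and the measured endpoint of each treated group was divided by that of its vehicle controls.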

[1] = endpoint: mean survival time, dose: 200.0 mg/kg/injection, schedule: Q01DX009 (ip), vehicle: saline with Tween-80
[2] = endpoint: mean survival time, dose: 400.0 mg/kg/injection, schedule: Q01DX009 (ip), vehicle: saline with Tween-80
[3] = endpoint: mean survival time, dose: 100.0 mg/kg/injection, schedule: Q01DX001 (ip), vehicle: saline with Tween-80
[4] = endpoint: mean survival time, dose: 200.0 mg/kg/injection, schedule: Q01DX001 (ip), vehicle: saline with Tween-80
[5] = endpoint: mean survival time, dose: 400.0 mg/kg/injection, schedule: Q01DX001 (ip), vehicle: saline with Tween-80
[6] = endpoint: mean survival time, dose: 100.0 mg/kg/injection, schedule: Q04DX003 (ip), vehicle: saline with Tween-80
[7] = endpoint: mean survival time, dose: 200.0 mg/kg/injection, schedule: Q04DX003 (ip), vehicle: saline with Tween-80
[8] = endpoint: mean survival time, dose: 400.0 mg/kg/injection, schedule: Q04DX003 (ip), vehicle: saline with Tween-80

`COc1cccc2c1C(=O)c1c(O)c3c(c(O)c1C2=O)CC(O)(C(=O)CO)CC3OC1CC(N)C(O)C(C)O1` (stereo not given) was tested, and the T/C (endpoint: mean survival time, dose: 0.31 mg/kg/injection, schedule: Q04DX003 (ip), vehicle: saline) was 120 % of control, the T/C (endpoint: mean survival time, dose: 0.62 mg/kg/injection, schedule: Q04DX003 (ip), vehicle: saline) was 120 % of control and the T/C (endpoint: mean survival time, dose: 3.13 mg/kg/injection, schedule: Q01DX009 (ip), vehicle: water) was 117 % of control. The T/C (endpoint: mean survival time, dose: 6.25 mg/kg/injection, schedule: Q01DX009 (ip), vehicle: water) was 123 % of control, the T/C (endpoint: mean survival time, dose: 12.5 mg/kg/injection, schedule: Q01DX009 (ip), vehicle: water) was 202 % of control and the T/C (endpoint: mean survival time, dose: 20.0 mg/kg/injection, schedule: Q04DX003 (ip), vehicle: saline) was 152 % of control and 155 % of control. The T/C (endpoint: mean survival time, dose: 25.0 mg/kg/injection, schedule: Q01DX009 (ip), vehicle: water) was 151 % of control, the T/C (endpoint: mean survival time, dose: 36.0 mg/kg/injection, schedule: Q01DX009 (ip), vehicle: water) was 150 % of control and the T/C (endpoint: mean survival time, dose: 40.0 mg/kg/injection, schedule: Q04DX003 (ip), vehicle: saline) was 113 % of control. The T/C (endpoint: mean survival time, dose: 80.0 mg/kg/injection, schedule: Q04DX003 (ip), vehicle: saline) was 89 % of control.

For `CC(=O)c1ccc(N=NC2C(=O)N(c3ccccc3)N=C2C)cc1` (stereo not given), the T/C [1] was 87 % of control and the T/C [2] was 95 % of control.

`CCOC(=O)c1ccc(NCC2=Nc3c(N)nc(N)nc3NC2)cc1` was tested, and the T/C (endpoint: mean survival time, dose: 12.5 mg/kg/injection, schedule: Q01DX001 (ip), vehicle: carboxymethylcellulose (CMC)) was 95 % of control, the T/C (endpoint: mean survival time, dose: 25.0 mg/kg/injection, schedule: Q01DX001 (ip), vehicle: carboxymethylcellulose (CMC)) was 108 % of control and the T/C (endpoint: mean survival time, dose: 50.0 mg/kg/injection, schedule: Q01DX001 (ip), vehicle: carboxymethylcellulose (CMC)) was 96 % of control.

In the case of `O=[C-]CC(=O)c1ccccc1.O=[C-]CC(=O)c1ccccc1.[Fe+2]`, the T/C [3] is reported as 95 % of control, the T/C [4] is reported as 87 % of control and the T/C [5] is reported as 89 % of control.

`CCCCS(=O)(=O)C(c1ccccc1)c1ccccc1` was tested, and the T/C (endpoint: mean survival time, dose: 100.0 mg/kg/injection, schedule: Q01DX001 (ip), vehicle: Klucel (hydroxypropylcellulose) (HPC)) was 90 % of control, the T/C (endpoint: mean survival time, dose: 200.0 mg/kg/injection, schedule: Q01DX001 (ip), vehicle: Klucel (hydroxypropylcellulose) (HPC)) was 96 % of control and the T/C (endpoint: mean survival time, dose: 400.0 mg/kg/injection, schedule: Q01DX001 (ip), vehicle: Klucel (hydroxypropylcellulose) (HPC)) was 90 % of control.

In the case of `CC(C)C1=CC2=CCC3C(C)(C#N)CCCC3(C)C2CC1CC#N` (stereo not given), the T/C (endpoint: mean survival time, dose: 100.0 mg/kg/injection, schedule: Q01DX009 (ip), vehicle: saline with Tween-80) is reported as 92 % of control, the T/C [1] is reported as 86 % of control and the T/C [2] is reported as 86 % of control.

For `O=c1ssc2ccccc12`, the T/C [6] was 101 % of control, the T/C [7] was 101 % of control and the T/C [8] was 98 % of control.

With `O=C1c2ccccc2-c2cc(Br)c(NC(Cl)Cl)cc21` the T/C [3] was 104 % of control, the T/C [4] was 106 % of control and the T/C [5] was 103 % of control.

`[Cl][Pt+2][Cl].[NH-]c1ccccc1C(F)(F)F.[NH-]c1ccccc1C(F)(F)F` was tested, and the T/C (endpoint: mean survival time, dose: 12.5 mg/kg/injection, schedule: Q04DX003 (ip), vehicle: distilled water + Tween-80) was 97 % of control, the T/C (endpoint: mean survival time, dose: 25.0 mg/kg/injection, schedule: Q04DX003 (ip), vehicle: distilled water + Tween-80) was 97 % of control and the T/C (endpoint: mean survival time, dose: 50.0 mg/kg/injection, schedule: Q04DX003 (ip), vehicle: distilled water + Tween-80) was 106 % of control. The T/C (endpoint: mean survival time, dose: 100.0 mg/kg/injection, schedule: Q04DX003 (ip), vehicle: distilled water + Tween-80) was 114 % of control.

In the case of `O=c1[nH]c(=O)n2ncc(Br)c2[nH]1`, the T/C (endpoint: median survival time, dose: 50.0 mg/kg/injection, schedule: Q01DX005 (ip), vehicle: saline) is reported as 102 % of control and the T/C (endpoint: median survival time, dose: 100.0 mg/kg/injection, schedule: Q01DX005 (ip), vehicle: saline) is reported as 102 % of control.

In the case of `Cc1ccc2c(/C=C/c3ccc(N(C)C)cc3)ccnc2c1`, the T/C (endpoint: mean survival time, dose: 100.0 mg/kg/injection, schedule: Q04DX003 (ip), vehicle: Klucel (hydroxypropylcellulose) (HPC)) is reported as 93 % of control, the T/C (endpoint: mean survival time, dose: 200.0 mg/kg/injection, schedule: Q04DX003 (ip), vehicle: Klucel (hydroxypropylcellulose) (HPC)) is reported as 104 % of control and the T/C (endpoint: mean survival time, dose: 400.0 mg/kg/injection, schedule: Q04DX003 (ip), vehicle: Klucel (hydroxypropylcellulose) (HPC)) is reported as 116 % of control.

In the case of `NC(=S)N1N=C(c2cccc([N+](=O)[O-])c2)CCC1=O`, the T/C [6] is reported as 111 % of control, the T/C [7] is reported as 111 % of control and the T/C [8] is reported as 107 % of control.

In the case of `O=C1C2(Cl)C(Cl)=C(Cl)C1(Cl)C1(Cl)C(Cl)=C(Cl)C(=O)C21Cl` (stereo not given), the T/C (endpoint: mean survival time, dose: 10.0 mg/kg/injection, schedule: Q01DX009 (ip), vehicle: saline with Tween-80) is reported as 94 % of control, the T/C (endpoint: mean survival time, dose: 20.0 mg/kg/injection, schedule: Q01DX009 (ip), vehicle: saline with Tween-80) is reported as 94 % of control and the T/C (endpoint: mean survival time, dose: 40.0 mg/kg/injection, schedule: Q01DX009 (ip), vehicle: saline with Tween-80) is reported as 92 % of control.
